Measured values from US7842782B2, “Heparanase-derived peptides for vaccination of tumor patients” (Deutsches Krebsforschungszentrum Stiftung Des Öffentlichen …, priority 2003, dated 2010).

Assays:
CD8-positive T cells = assay: Tetramer staining (HLA-A2/peptide tetramers, flow cytometry); assay type: cell-based, human; conditions: 2 examined patients (text summary of Table 4)
Experimental: 10^6 of each BM-MNC and PB-MNC are blocked with 5% endobulin (immunoglobulin G), incubated with tetramers on ice for 45 min and then stained with CD8-FITC (Becton Dickinson). Dead cells are identified by propidium iodide. The number of T-cells which are double positive for CD8 and tetramer are determined by flow cytometry.

[1] = tested on: peptide-specific T-cells from the bone marrow (BMTCs); assay: IFN-γ Enzyme-Linked Immuno Assay (ELISpot); assay type: cell-based, human; conditions: for patients significantly reacted against peptide: BMTCs of 15 female breast cancer patients, insulin p34 negative control, 10 μg/ml peptide; for reaction of T cells in ELISpot: vs insulin
Experimental: Mononuclear cells (MNC) from periphery blood (PB) and bone marrow (BM) were isolated via Ficoll gradients (Biocoll separating solution, Biochrom AG). MNC were washed two times with RPMI 1640, transferred to uncoated cell culture dishes, and grown for two hours at 37° C., 5% CO2 in x-VIVO-20 media (BioWhittaker, Walkersville, Md.) for adhesion. Adherent cells were cultivated for 7 day in x-VIVO-20 media with the addition of GM-CSF ([…]; Behringwerke, Marburg) and IL-4 (1000 U/ml; Promocell, Heidelberg). Dendritic cells (DCs) were magnetically isolated via anti-CD-3-coated and anti-CD-19-coated magnetic beads (Dynal). Non-adherent cells were cultivated for 7 days in RPMI 1640 supplemented with 8% human AB sera (Sigma), rhuIL-2 (100 U/ml; Chiron, Ratingen) and IL-4 (60 U/ml). T cells (TCs) were purified via anti-CD-56-coated, anti-CD-19-coated and anti-CD-15-coated magnetic beads.
The number of peptide-specific T-cells from the bone marrow (BMTCs) of female patients is determined by the ELISpot method. For this purpose, a 96-well ELISpot plate (Millipore) is coated with anti-human-IFNγ antibodies (ELISpot Kit, Mabtech) over night at 4° C. and then one hour blocked with RPMI 5% AB sera (37° C., 5% CO2). 10^4 DCs, 10^5 TCs and 10 μg/ml peptide are cultivated on the IFN-γ-coated ELISpot plate for 40 hours (37° C., 5% CO2). Supernatants are discarded and the plate is developed via the ELISpot kit (Mabtech). IFN-γ producing cells are counted with Axioplan Mikroskop (Zeiss) by using the KS ELISpot software. For negative controls, HIV or insulin peptides are used. Each group is determined in triplicate. Positive results are measured via the so-called T-test (p<0.05).

Substance | HLA-A2peptide staining of CD8-positive T cells (CD8-positive T cells) | patients significantly reacted against peptide [1] | reaction of T cells in ELISpot ([1]; MaCa patient 503) | reaction of T cells in ELISpot ([1]; MaCa patient 639) | reaction of T cells in ELISpot ([1]; MaCa patient 704) | reaction of T cells in ELISpot ([1]; MaCa patient 579) | reaction of T cells in ELISpot ([1]; MaCa patient 581) | reaction of T cells in ELISpot ([1]; MaCa patient 753) | reaction of T cells in ELISpot ([1]; MaCa patient 790) | reaction of T cells in ELISpot ([1]; MaCa patient 590) | reaction of T cells in ELISpot ([1]; MaCa patient 923)
A L P P P L M L L (ALPPPLMLL) [Hpa p8] | enriched fractions of CD8-positive T cells | 20% | x (x = positive (p value < 0.05) reaction of T cells in ELISpot) | x (x = positive (p value < 0.05) reaction of T cells in ELISpot) | x (x = positive (p value < 0.05) reaction of T cells in ELISpot) |  |  |  |  |  | 
D L I F G L N A L (DLIFGLNAL) [Hpa p183] |  | 40% | x (x = positive (p value < 0.05) reaction of T cells in ELISpot) | x (x = positive (p value < 0.05) reaction of T cells in ELISpot) |  | x (x = positive (p value < 0.05) reaction of T cells in ELISpot) | x (x = positive (p value < 0.05) reaction of T cells in ELISpot) | x (x = positive (p value < 0.05) reaction of T cells in ELISpot) | x (x = positive (p value < 0.05) reaction of T cells in ELISpot) |  | 
L L L G P L G P L (LLLGPLGPL) [Hpa p16] | enriched fractions of CD8-positive T cells | 33% | x (x = positive (p value < 0.05) reaction of T cells in ELISpot) | x (x = positive (p value < 0.05) reaction of T cells in ELISpot) |  | x (x = positive (p value < 0.05) reaction of T cells in ELISpot) |  |  | x (x = positive (p value < 0.05) reaction of T cells in ELISpot) | x (x = positive (p value < 0.05) reaction of T cells in ELISpot) | x (x = positive (p value < 0.05) reaction of T cells in ELISpot)
